{
  "source": "patent US20130109620A1",
  "about": "“BALAGLITAZONE COMPOSITIONS AND METHODS” (RHEOSCIENCE A/S, priority 2009, published 2013)",
  "key": {"[1]": {"tested_on": "T2D patients on stable insulin therapy", "test": "26-week clinical study: systolic and diastolic blood pressure", "assay_type": "in vivo, human", "settings": "26 weeks, placebo −1.7", "source_text": "(§1) All tablets were contained in an identical capsule. Subjects, study-site personnel, and sponsors were all blinded.\nAny abnormalities were registered."}, "[2]": {"settings": "subjects on stable insulin therapy, 24-week period, reference (28), cited from earlier work"}, "[3]": {"tested_on": "T2D patients on stable insulin therapy", "test": "26-week clinical study: lower leg volume by volume of water displacement (VWD)", "assay_type": "in vivo, human", "settings": "26 weeks", "description": "as §1\nLower leg volume of both legs was determined using the volume of water displacement (“VWD”) method at visits 2 and 8, using Partial Leg Baseline Volumetric Edema Gauges (26)."}, "[4]": {"test": "26-week clinical study: body weight", "assay_type": "in vivo, human", "settings": "26 weeks, p<0.0001", "source_text": "as §1"}, "[5]": {"tested_on": "T2D patients on stable insulin therapy", "test": "26-week clinical study: body composition and total body BMD by DXA", "assay_type": "in vivo, human", "settings": "26 weeks", "description": "All tablets were contained in an identical capsule. Subjects, study-site personnel, and sponsors were all blinded. Body composition was measured by Dual Energy X-ray Absorptiometry (“DXA”) on visits 2 and 8, in which total body lean (“LTM”), fat tissue mass (“FTM”), and bone mineral density (“BMD”) were measured. Subjects were instructed to fast, beginning at 10 PM the night before body composition measurements. […] The scans were conducted using Lunar DPX (GE Healthcare Worldwide), Hologic™ (Hologic™, Hologic (UK) Limited, UK), or Norland (Norland Medical Systems, Inc.) whole body scanners, and each individual was scanned with the same scanner at both visits."}, "[6]": {"tested_on": "T2D patients on stable insulin therapy", "test": "26-week clinical study: glycemic control (HbA1c, FSG, 7-point glucose, serum insulin, insulin dose)", "assay_type": "in vivo, human", "settings": "for HbA1c level decrease compared to placebo / post-prandial glucose reduction (7-point glucose test) compared to placebo / fasting serum glucose (FSG) reduction compared to placebo: 26 weeks", "source_text": "Subjects were required to meet the following criteria to be included in the study: type 2 diabetes mellitus being diagnosed at least three months earlier according to the 1999 World Health Organisation criteria; age ≧18 years; body mass index (“BMI”)≧25 kg/m^2; HbA1c≧7%; and treatment with insulin on a stable dose of at least 30 U/day (±4 U/day), for at least 75 days, although insulin adjustments to resolve short term acute disease were permitted. […] All tablets were contained in an identical capsule. Subjects, study-site personnel, and sponsors were all blinded. One screening visit was conducted four weeks before randomization, and at week zero, subjects meeting the inclusion and exclusion criteria were assessed for safety. Subjects visited the clinics at the screening visit, at baseline, and at weeks 4, 8, 12, 16, 20 and 26. At each visit, fasting blood samples were collected for analysis of glycemic control, lipids, and clinical chemistry. All laboratory analyses were performed by a central laboratory. Subjects were instructed to keep their usual diet. They were supplied with a plasma glucose meter and instructed regarding how to obtain 7-point plasma glucose profiles. The values of the 7-point measurement performed within the last week before visits 2, 3, 4, 5, 6, 7 and 8 were included in the study. The 7-point plasma glucose profile consisted of glucose levels before each meal (breakfast, lunch, and dinner), 90 minutes after the start of each of those meals, and at bedtime."}, "[7]": {"tested_on": "T2D patients on stable insulin therapy", "test": "26-week clinical study: adverse events and tolerability", "settings": "for subjects with AEs of special interest (strain on the heart or bone fractures): placebo 12%; for subjects who withdrew due to an AE: placebo 15%"}, "[8]": {"tested_on": "T2D patients on stable insulin therapy", "test": "26-week clinical study: serum biochemistry (ALP, lipids, NT-proBNP)", "assay_type": "in vivo, human", "settings": "26 weeks", "description": "All tablets were contained in an identical capsule. Subjects, study-site personnel, and sponsors were all blinded. One screening visit was conducted four weeks before randomization, and at week zero, subjects meeting the inclusion and exclusion criteria were assessed for safety. Subjects visited the clinics at the screening visit, at baseline, and at weeks 4, 8, 12, 16, 20 and 26. At each visit, fasting blood samples were collected for analysis of glycemic control, lipids, and clinical chemistry. All laboratory analyses were performed by a central laboratory."}, "[9]": {"settings": "pioglitazone 45 mg once daily, p<0.0001"}, "[10]": {"settings": "balaglitazone 10 mg once daily, p<0.01"}, "[11]": {"settings": "balaglitazone 20 mg once daily, p<0.0001"}},
  "note": "Counter-ions that a name gives are not always drawn. Like-named read-outs stand apart in the source and are kept apart here.",
  "data": [
    {"smiles": "CCc1ccc(CCOc2ccc(CC3SC(=O)NC3=O)cc2)nc1", "note": "(racemic) [pioglitazone, [(±)-5-[[4-[2-(5-ethyl-2-pyridinyl)ethoxy]phenyl]methyl]-2,4-]thiazolidinedione monohydrochloride, reference compound]", "values": [
      {"measurement": "systolic blood pressure reduction", "setting": "[1]; pioglitazone 45 mg once daily, SE 0.9", "value": "−3.0", "unit": "mmHg"},
      {"measurement": "diastolic blood pressure reduction", "setting": "[1]; pioglitazone 45 mg once daily, SE 1.5", "value": "−3.9", "unit": "mmHg"},
      {"measurement": "weight increase", "setting": "[2]; pioglitazone 30 mg", "value": 2.9, "unit": "kg"},
      {"measurement": "weight increase", "setting": "[2]; pioglitazone 45 mg", "value": 3.4, "unit": "kg"},
      {"measurement": "lower leg volume (VWD) compared with placebo", "setting": "[3]; pioglitazone 45 mg once daily", "value": "significantly increased lower leg volume"},
      {"measurement": "body weight increase compared to placebo", "setting": "[4]; pioglitazone 45 mg once daily", "value": 4.5, "unit": "kg"},
      {"measurement": "total body bone mineral density (TB-BMD) compared with placebo", "setting": "[5]; pioglitazone 45 mg once daily, no significant change", "value": "trend toward loss of bone"},
      {"measurement": "HbA1c level decrease compared to placebo", "setting": "[6]; [9]", "value": "−1.22", "unit": "%"},
      {"measurement": "post-prandial glucose reduction (7-point glucose test) compared to placebo", "setting": "[6]; [9]", "value": -2.6, "unit": "mmol/L"},
      {"measurement": "fasting serum glucose (FSG) reduction compared to placebo", "setting": "[6]; pioglitazone 45 mg once daily, p<0.05", "value": -1.4, "unit": "mmol/L"},
      {"measurement": "influenza, total number of events", "setting": "[7]; pioglitazone 45 mg group", "value": 10},
      {"measurement": "number of heart failures", "setting": "[7]; pioglitazone 45 mg group", "value": 3},
      {"measurement": "subjects reporting adverse events", "setting": "[7]; pioglitazone 45 mg group, out of 102 subjects", "value": 75, "unit": "subjects"},
      {"measurement": "subjects reporting influenza", "setting": "[7]; pioglitazone 45 mg group, placebo 3%", "value": 9, "unit": "%"},
      {"measurement": "subjects reporting nasopharyngitis", "setting": "[7]; pioglitazone 45 mg group, placebo 10%", "value": 3, "unit": "%"},
      {"measurement": "subjects with AEs of special interest (strain on the heart or bone fractures)", "setting": "[7]; pioglitazone 45 mg group", "value": 25, "unit": "%"},
      {"measurement": "subjects who withdrew due to an AE", "setting": "[7]; pioglitazone 45 mg group", "value": 8, "unit": "%"},
      {"measurement": "serum NT-proBNP compared to placebo", "setting": "[8]; pioglitazone 45 mg once daily", "value": "significant increase"}
    ]},
    {"smiles": "Cn1c(COc2ccc(CC3SC(=O)NC3=O)cc2)nc2ccccc2c1=O", "note": "(stereo not shown) [balaglitazone, 5[4-(3-methyl-4-oxo-3,4-dihydroquinazolin-2-ylmethoxy)-benzyl]-thiazolidine-2,4-dione]", "values": [
      {"measurement": "diastolic blood pressure reduction", "setting": "[1]; balaglitazone 10 mg once daily, SE 0.9", "value": "−1.8", "unit": "mmHg"},
      {"measurement": "diastolic blood pressure reduction", "setting": "[1]; balaglitazone 20 mg once daily, SE 1.0", "value": "−2.2", "unit": "mmHg"},
      {"measurement": "lower leg volume (VWD) compared with placebo", "setting": "[3]; balaglitazone 10 mg once daily", "value": "no significant increase in leg volume"},
      {"measurement": "lower leg volume (VWD) compared with placebo", "setting": "[3]; balaglitazone 20 mg once daily", "value": "significantly increased lower leg volume"},
      {"measurement": "body weight increase compared to placebo", "setting": "[4]; balaglitazone 10 mg once daily", "value": 3.1, "unit": "kg"},
      {"measurement": "body weight increase compared to placebo", "setting": "[4]; balaglitazone 20 mg once daily", "value": 4.7, "unit": "kg"},
      {"measurement": "total body bone mineral density (TB-BMD) compared to placebo", "setting": "[5]; balaglitazone 10 mg and 20 mg groups", "value": "neither of the balaglitazone groups showed any indication of bone loss"},
      {"measurement": "whole body fat accumulation compared to pioglitazone 45 mg", "setting": "[5]; balaglitazone 10 mg once daily", "value": "trend toward lower fat accumulation"},
      {"measurement": "fat mass gain in the legs compared to the pioglitazone group", "setting": "[5]; [10]", "value": "significantly less fat mass"},
      {"measurement": "glucose-lowering capabilities compared to pioglitazone 45 mg", "setting": "[6]; balaglitazone 10 mg dose", "value": "equipotent"},
      {"measurement": "HbA1c level decrease compared to placebo", "setting": "[6]; balaglitazone 10 mg once daily, p<0.0001", "value": "−0.99", "unit": "%"},
      {"measurement": "post-prandial glucose reduction (7-point glucose test) compared to placebo", "setting": "[6]; [10]", "value": -1.6, "unit": "mmol/L"},
      {"measurement": "fasting serum glucose (FSG) reduction compared to placebo", "setting": "[6]; balaglitazone 10 mg once daily, p=0.01", "value": -1.4, "unit": "mmol/L"},
      {"measurement": "HbA1c level decrease compared to placebo", "setting": "[6]; [11]", "value": "−1.11", "unit": "%"},
      {"measurement": "post-prandial glucose reduction (7-point glucose test) compared to placebo", "setting": "[6]; [11]", "value": -2.5, "unit": "mmol/L"},
      {"measurement": "fasting serum glucose (FSG) reduction compared to placebo", "setting": "[6]; balaglitazone 20 mg once daily, p<0.001", "value": -1.8, "unit": "mmol/L"},
      {"measurement": "tolerability throughout the study", "setting": "[7]; balaglitazone 10 mg and 20 mg, 26 weeks", "value": "well-tolerated"},
      {"measurement": "heart failure, peripheral oedema and myocardial infarction compared to the remaining groups", "setting": "[7]; balaglitazone 10 mg group", "value": "numerically lower"},
      {"measurement": "number of heart failures", "setting": "[7]; balaglitazone 10 mg group", "value": 0},
      {"measurement": "percentage of serious adverse events", "setting": "[7]; balaglitazone 10 mg group", "value": 6, "unit": "%"},
      {"measurement": "subjects reporting adverse events", "setting": "[7]; balaglitazone 10 mg group, out of 99 subjects", "value": 81, "unit": "subjects"},
      {"measurement": "subjects with AEs of special interest (strain on the heart or bone fractures)", "setting": "[7]; balaglitazone 10 mg group", "value": 10, "unit": "%"},
      {"measurement": "subjects who withdrew due to an AE", "setting": "[7]; balaglitazone 10 mg group", "value": 16, "unit": "%"},
      {"measurement": "percentage of serious adverse events", "setting": "[7]; balaglitazone 20 mg group", "value": 11, "unit": "%"},
      {"measurement": "subjects reporting adverse events", "setting": "[7]; balaglitazone 20 mg group, out of 99 subjects", "value": 77, "unit": "subjects"},
      {"measurement": "subjects with AEs of special interest (strain on the heart or bone fractures)", "setting": "[7]; balaglitazone 20 mg group", "value": 19, "unit": "%"},
      {"measurement": "subjects who withdrew due to an AE", "setting": "[7]; balaglitazone 20 mg group", "value": 17, "unit": "%"},
      {"measurement": "number of fractures observed", "setting": "[7]; balaglitazone 20 mg group, the only fracture in the study", "value": "one"},
      {"measurement": "LDL cholesterol levels and total cholesterol", "setting": "[8]; balaglitazone 10 mg and 20 mg", "value": "neither LDL cholesterol levels nor total cholesterol changed"},
      {"measurement": "HDL cholesterol levels compared to placebo", "setting": "[8]; balaglitazone 10 mg and 20 mg, p<0.001 for both groups", "value": "significantly increased"},
      {"measurement": "reduction in serum ALP compared to the pioglitazone 45 mg group", "setting": "[8]; balaglitazone 10 mg once daily", "value": "significantly smaller"},
      {"measurement": "serum NT-proBNP compared to placebo", "setting": "[8]; balaglitazone 10 mg once daily", "value": "only a trend was observed"},
      {"measurement": "serum NT-proBNP compared to placebo", "setting": "[8]; balaglitazone 20 mg once daily", "value": "significant increase"},
      {"measurement": "increase in NT-proBNP compared to the pioglitazone 45 mg group", "setting": "[8]; balaglitazone 20 mg once daily, p<0.01", "value": "significantly larger"}
    ]}
  ]
}
